Measured values from patent US20040121994A1, “Novel amides that activate soluble guanylate cyclase” (priority 2002, published 2004).

Tests used:
[1] = biological target: T1, soluble guanylate cyclase (sGC), α1 and β1 subunits of guanylate cyclase expressed in Sf9 cells (Homo sapiens, UniProt Q02108+Q02153); test: Guanylate cyclase assay (formation of cyclic GMP from GTP); type: biochemical; conditions: for Mean activation at 100 μM: (activity of compound at 100 μM with 1 μM SNP)−(activity of compound at 100 μM)/(activity of SNP at 1 μM)−(basal activity of sGC); for Mean efficacy of compound combined with 1 μM of SNP, [%]: compound at 100 μM with 1 μM sodium nitro prusside (SNP); for Mean efficacy of compound combined with 1 μM of SNP, [%] / Emax at 100 µM: normalized with the activity of 100 μM YC-1 (without SNP) as 100%; for Emax at 100 µM: compound at 100 μM without SNP, read-out: Mean basal efficacy of compound alone at 100 μM, [%]
T1 construct: made in house; host or cells: Sf9 insect cells (baculovirus co-infection)
T1 sequence (Q02108 1-690): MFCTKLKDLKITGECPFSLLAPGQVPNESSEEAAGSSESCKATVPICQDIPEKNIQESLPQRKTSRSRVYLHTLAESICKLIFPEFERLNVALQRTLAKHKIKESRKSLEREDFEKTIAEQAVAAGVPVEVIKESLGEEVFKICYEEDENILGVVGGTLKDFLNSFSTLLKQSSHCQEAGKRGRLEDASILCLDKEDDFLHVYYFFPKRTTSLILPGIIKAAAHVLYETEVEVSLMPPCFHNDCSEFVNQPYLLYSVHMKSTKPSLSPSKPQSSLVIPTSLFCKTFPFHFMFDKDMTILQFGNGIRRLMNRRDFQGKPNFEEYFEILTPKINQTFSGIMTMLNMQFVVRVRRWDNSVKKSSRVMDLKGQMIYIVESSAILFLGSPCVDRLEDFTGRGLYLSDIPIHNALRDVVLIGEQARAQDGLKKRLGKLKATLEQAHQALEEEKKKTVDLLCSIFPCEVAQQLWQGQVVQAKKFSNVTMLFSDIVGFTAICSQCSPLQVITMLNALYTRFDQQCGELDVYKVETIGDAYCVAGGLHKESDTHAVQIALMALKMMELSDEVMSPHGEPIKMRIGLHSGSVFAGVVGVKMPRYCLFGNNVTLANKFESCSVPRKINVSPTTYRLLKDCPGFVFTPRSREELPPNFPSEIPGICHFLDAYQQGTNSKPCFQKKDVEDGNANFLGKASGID
T1 sequence (Q02153 1-619): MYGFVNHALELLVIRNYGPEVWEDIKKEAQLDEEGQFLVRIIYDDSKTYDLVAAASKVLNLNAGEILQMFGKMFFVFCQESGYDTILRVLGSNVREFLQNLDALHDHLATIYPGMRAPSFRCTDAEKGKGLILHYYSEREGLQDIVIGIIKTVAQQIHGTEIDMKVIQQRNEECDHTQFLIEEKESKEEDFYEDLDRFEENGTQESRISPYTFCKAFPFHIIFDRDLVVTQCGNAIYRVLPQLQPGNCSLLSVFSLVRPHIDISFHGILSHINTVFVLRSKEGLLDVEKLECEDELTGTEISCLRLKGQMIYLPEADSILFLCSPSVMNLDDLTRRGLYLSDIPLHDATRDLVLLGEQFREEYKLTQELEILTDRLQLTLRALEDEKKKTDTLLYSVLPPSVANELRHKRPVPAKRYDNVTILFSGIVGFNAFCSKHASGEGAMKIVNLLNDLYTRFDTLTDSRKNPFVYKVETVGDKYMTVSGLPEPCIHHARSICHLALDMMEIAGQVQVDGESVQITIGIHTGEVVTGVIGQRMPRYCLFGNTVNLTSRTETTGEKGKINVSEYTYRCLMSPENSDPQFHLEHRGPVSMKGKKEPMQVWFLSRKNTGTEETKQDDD
How it was run: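 Sf9 high-speed supernatant with human sGC α1/β1 converted 1 mM GTP to cGMP over 15 min at 37 °C (50 mM Tris pH 7.6, 4 mM MgCl2, 0.5 mM IBMX); cGMP by enzyme immunoassay. Compounds at 100 μM, with or without 1 μM SNP; activity expressed relative to 100 μM YC-1 (no SNP) as 100%.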

Row | Mean activation at 100 μM [1] | Mean efficacy of compound combined with 1 μM of SNP, [%] [1] | Emax at 100 µM [1] | melting point | Structure (SMILES)
1 | 9.5 | 160% | 54% | 134 to 136 °C | COc1ccc(Sc2ccccc2/C=C/C(=O)NCCCCO)cc1 [Example 43, (2E)-N-(4-hydroxybutyl)-3-{2-[(4-methoxyphenyl)thio]phenyl}acrylamide]
2 | 2.9 | 110% | 69% | 68 to 71 °C | O=C(/C=C/c1ccccc1Sc1ccc(Cl)cc1Cl)NCCCCO [Example 29, (2E)-3-{2-[(2,4-dichlorophenyl)thio]phenyl}-N-(4-hydroxybutyl)acrylamide]
3 | 3.4 | 289% | 66% | 86 to 88 °C | O=C(/C=C/c1ccccc1Sc1ccc(Cl)cc1)NC1CCC(O)CC1 (stereo not drawn) [Example 30, (2E)-3-{2-[(4-chlorophenyl)thio]phenyl}-N-(4-hydroxycyclohexyl)acrylamide]
4 | 4.8 | 58% | 14% | – | Cc1ccc(Sc2ccccc2/C=C/C(=O)NC2CCC(O)CC2)cc1 (stereo not drawn) [Example 42, (2E)-N-(4-hydroxycyclohexyl)-3-{2-[(4-methylphenyl)thio]phenyl}acrylamide]
